# Like-named read-outs stand apart in the source and are kept apart here.
# Key:
# [1] = system: Caspase 3/7 activity in SH-SY5Y and dSH-SY5Y cells; test: Caspase-Glo 3/7 luminescence assay, 24 h; format: cell-based
# LUHMES and dLUHMES cells [2] = conditions: 6 h, 6HD 1 µM
# [3] = system: Caspase 3/7 activity in NSC and dNSC cells; format: cell-based, human; conditions: 24 h, threshold […] above control
# LUHMES and dLUHMES cells [4] = system: LUHMES and dLUHMES cells
# NSC and dNSC cells = conditions: 24 h exposure, [ATP], 0.78 to 100 µM
# SH-SY5Y = conditions: cited from earlier work
SMILES,"peak Caspase 3/7 activities, ranking among compounds [1]",expression of a series of apoptosis-related genes (LUHMES and dLUHMES cells [2]; LUHMES),expression of BCL2A1 and IL10 (LUHMES and dLUHMES cells [2]; dLUHMES),expression of a series of apoptosis-related genes (LUHMES and dLUHMES cells [2]; dLUHMES),increase of Caspase 3/7 activity in dNSC [3],"cytotoxic sensitivity ([ATP] IC50) of LUHMES and/or dLUHMES relative to the other cell lines (LUHMES and dLUHMES cells [4]; 24 h exposure, 0.78 to 100 µM, vs SH-SY5Y/dSH-SY5Y and NSC/dNSC)","relative cytotoxic sensitivity of LUHMES versus dLUHMES cells (LUHMES and dLUHMES cells [4]; 24 h exposure, [ATP], 0.78 to 100 µM)",relative cytotoxic sensitivity of NSC versus dNSC (NSC and dNSC cells),In vitro neural selectivity (effect reported in SH-SY5Y) (SH-SY5Y),cytotoxic sensitivity ([ATP] IC50) of LUHMES and/or dLUHMES relative to the other cell lines (LUHMES and dLUHMES cells [4])
"NCCc1cc(O)c(O)cc1O [6HD, 6-hydroxydopamine]",highest activities,not observed,increased expression,increased expression,but not dNSC,more sensitive than the other cell lines,dLUHMES cells were markedly more sensitive than LUHMES cells,NSC more sensitive than dNSC,,
"O=c1c(O)c(-c2ccc(O)c(O)c2)oc2cc(O)cc(O)c12 [QRC, Quercetin]",,,,,,,,,"Toxic or protective in SH- SY5Y ([Ossola et al., 2008])",more sensitive than the other cell lines
